Legend:
184A1 [1] = assay: area over the GR curve, 72 h; higher = more effect;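 also: Dye Drop or Deep Dye Drop imaging of viable cells in 384-well plates (Hoechst nuclei, LIVE/DEAD dye), nine half-log doses, GR normalized to DMSO controls and time-zero plates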
HCC1187 = assay: area over the GR curve, 72 h; higher = more effect;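 also: Dye Drop or Deep Dye Drop imaging of viable cells in 384-well plates (Hoechst nuclei, LIVE/DEAD dye), nine half-log doses, GR normalized to DMSO controls and time-zero plates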
HCC1395 = assay: area over the GR curve, 72 h; higher = more effect;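 also: Dye Drop or Deep Dye Drop imaging of viable cells in 384-well plates (Hoechst nuclei, LIVE/DEAD dye), nine half-log doses, GR normalized to DMSO controls and time-zero plates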
PDX1328 = assay: GRmax, 72 h; higher = less effect;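 also: breast cell lines in 384-well plates, nine doses across a 10^4 range, Dye Drop imaging of viable cells vs DMSO and time-zero plates, GR 0 means no net growth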
HS578T = assay: GRmax, 72 h; higher = less effect;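 also: breast cell lines in 384-well plates, nine doses across a 10^4 range, Dye Drop imaging of viable cells vs DMSO and time-zero plates, GR 0 means no net growth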
MCF7 = assay: GRmax, 72 h; higher = less effect;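 also: breast cell lines in 384-well plates, nine doses across a 10^4 range, Dye Drop imaging of viable cells vs DMSO and time-zero plates, GR 0 means no net growth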
184A1 [2] = assay: GRmax, 72 h; higher = less effect;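 also: breast cell lines in 384-well plates, nine doses across a 10^4 range, Dye Drop imaging of viable cells vs DMSO and time-zero plates, GR 0 means no net growth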
MDAMB468 = assay: GRmax, 72 h; higher = less effect
HCC202 = assay: GRmax, 72 h; higher = less effect
HCC38 = assay: GRmax, 72 h; higher = less effect
HCC1143 = assay: GRmax, 72 h; higher = less effect
SUM190PT = assay: GRmax, 72 h; higher = less effect
SUM229PE = assay: GRmax, 72 h; higher = less effect

Row | SMILES | area over the GR curve (184A1 [1]) [GR] | area over the GR curve (HCC1187) [GR] | area over the GR curve (HCC1395) [GR] | GRmax, 72 h (PDX1328) [GR] | GRmax, 72 h (HS578T) [GR] | GRmax, 72 h (MCF7) [GR] | GRmax, 72 h (184A1 [2]) [GR] | GRmax, 72 h (MDAMB468) [GR] | GRmax, 72 h (HCC202) [GR] | GRmax, 72 h (HCC38) [GR] | GRmax, 72 h (HCC1143) [GR] | GRmax, 72 h (SUM190PT) [GR] | GRmax, 72 h (SUM229PE) [GR]
1 | COc1ccc2c(c1)[C@]1(C[C@H]1c1ccc3c(/C=C/c4ccc(CN5C[C@@H](C)O[C@@H](C)C5)cc4)n[nH]c3c1)C(=O)N2 | 0.668 | 0.535 | 0.709 | -0.0338 | -0.103 | -0.0551 | 0.0075 | -0.38 | 0.493 | -0.403 | 0.0518 | 0.12 | -0.0183
2 | COc1cccc(OCCCN)c1-c1cc(Nc2cnc(C#N)cn2)n[nH]1 | 0.0009 | 0.235 | 0.832 | 0.111 | -0.359 | 0.211 | 0.529 | 0.6 | 0.0486 | -0.556 | -0.117 | -0.101 | -0.112
3 | CC(=O)Nc1cccc(-n2c(=O)n(C3CC3)c(=O)c3c(Nc4ccc(I)cc4F)n(C)c(=O)c(C)c32)c1 (max 1 µM) | 0.659 | 0.198 | 0.185 | 0.661 | 0.193 | 0.558 | 0.187 | 0.407 | 0.526 | 0.185 | -0.0225 | 0.744 | 0.172
4 | CCc1cnn2c(NCc3ccc[n+]([O-])c3)cc(N3CCCC[C@H]3CCO)nc12 (max 1 µM) | 0.636 | 0.942 | 0.644 | -0.577 | -0.239 | -0.249 | -0.33 | -0.413 | 0.0907 | -0.442 | -0.253 | -0.659 | -0.21
5 | CC(=O)c1c(C)c2cnc(Nc3ccc(N4CCNCC4)cn3)nc2n(C2CCCC2)c1=O (max 3.162 µM) | 0.375 | 0.268 | 0.274 | 0.361 | 0.305 | 0.254 | 0.128 | 1.05 | 0.691 | 0.147 | 0.282 | 0.347 | 0.4
6 | CCc1cncnc1N1CCN(Cc2nc3ccc(C(F)(F)F)cc3[nH]2)CC1 (max 10 µM) | -0.0012 | 0.014 | 0.0037 | 0.619 | 0.914 | 0.558 | 1.02 | 0.0813 | 0.673 | 0.976 | 0.739 | 0.461 | 0.743
7 | CCCCOc1c(C(=O)c2c(F)cc(C)cc2F)c[nH]c2nncc1-2 (max 10 µM) | 0.954 | 0.203 | 0.807 | 0.773 | -0.0288 | 0.072 | -0.0413 | -0.112 | 0.384 | -0.0129 | -0.0529 | -0.0112 | 0.0454
8 | CCN1CCN(Cc2ccc(Nc3ncc(F)c(-c4cc(F)c5nc(C)n(C(C)C)c5c4)n3)nc2)CC1 (max 10 µM) | 0.635 | 0.33 | 0.562 | -0.65 | -0.583 | -0.268 | -0.105 | -0.288 | 0.3 | -0.327 | -0.0787 | -0.582 | 0.146
9 | CNc1nc(-c2ccc3c(N)n[nH]c3c2)cc(N2C[C@@H](C(=O)NC3CCCCC3)CC[C@H]2C)n1 (max 10 µM) | 0.135 | -0.283 | 0.187 | 0.545 | 0.538 | 0.295 | 0.572 | 0.531 | 0.155 | 0.767 | 0.742 | 0.236 | 0.696
10 | CO[C@@H](C)Cn1c(=O)n(C)c2cnc3ccc(-c4cncc(C(C)(C)O)c4)cc3c21 (max 10 µM) | 0.761 | 0.303 | 0.618 | 0.0061 | 0.0776 | -0.248 | 0.0943 | -0.211 | -0.0355 | -0.0301 | -0.203 | -0.5 | 0.0211
11 | Cc1nn(C)c(COc2ccc(N3CCN(S(=O)(=O)N(C)C)CC3)cc2)c1-c1cccc2c(CCCOc3cccc4ccccc34)c(C(=O)O)n(CCN3CCOCC3)c12 (max 10 µM) | 0.0952 | -0.0287 | -0.0037 | 0.873 | 0.942 | 0.877 | -0.164 | 0.93 | 0.828 | 0.887 | 0.672 | 0.114 | 0.547
12 | CN(C)CC[C@H](CSc1ccccc1)Nc1ccc(S(=O)(=O)NC(=O)c2ccc(N3CCN(Cc4ccccc4-c4ccc(Cl)cc4)CC3)cc2)cc1[N+](=O)[O-] [ABT-737] (max 10 µM) | 0.153 | 0.526 | -0.0157 | -0.678 | 0.775 | 0.727 | -0.0149 | 0.142 | 0.588 | -0.421 | 0.376 | -0.475 | 0.418
13 | C=CCn1c(=O)c2cnc(Nc3ccc(N4CCN(C)CC4)cc3)nc2n1-c1cccc(C(C)(C)O)n1 [AZD1775] (max 10 µM) | 0.366 | 0.822 | 0.886 | -0.32 | -0.394 | -0.0913 | 0.0471 | -0.492 | -0.148 | -0.492 | -0.458 | -0.197 | -0.259
14 | CNC(=O)c1cccc(-c2ccc3c(N4CCOC[C@@H]4C)nc(N4CCOC[C@@H]4C)nc3n2)c1 [AZD2014] (max 10 µM) | 0.729 | 0.296 | 0.582 | 0.0715 | 0.273 | -0.0281 | 0.0847 | 0.23 | 0.0087 | 0.195 | 0.182 | -0.514 | 0.338
15 | NC1(C(=O)N[C@@H](CCO)c2ccc(Cl)cc2)CCN(c2nc[nH]c3nccc2-3)CC1 [AZD5363] (max 10 µM) | 0.122 | -0.203 | 0.5 | 0.766 | 0.349 | 0.476 | 0.773 | 0.545 | 0.572 | 0.731 | 0.769 | 0.243 | 0.516
